{
  "source": "patent US20250034135A1",
  "about": "“ANTI-APOPTOTIC PROTEIN BCL-2 INHIBITOR, PHARMACEUTICAL COMPOSITION AND USES THEREOF” (HANGZHOU HEALZEN THERAPEUTICS CO., LTD., priority 2021, published 2025)",
  "data": [
    {"target": "BCL2 (Homo sapiens (Human), UniProt P10415)", "sequence (P10415 whole entry)": "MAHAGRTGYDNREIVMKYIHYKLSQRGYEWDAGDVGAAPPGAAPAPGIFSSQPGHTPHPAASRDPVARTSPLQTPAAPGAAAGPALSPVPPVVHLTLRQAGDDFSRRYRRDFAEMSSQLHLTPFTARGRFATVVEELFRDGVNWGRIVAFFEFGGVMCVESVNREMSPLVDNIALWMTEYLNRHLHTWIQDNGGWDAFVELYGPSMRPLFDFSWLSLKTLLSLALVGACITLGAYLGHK", "experiment": "Molecular level activity test of anti-apoptotic protein BCL2 (HTRF, binding to Bim peptide)", "conditions": "HTRF, binding of BCL2 to Bim peptide; read-out: BCL2 nM (inhibitory activity, IC50)", "outline": "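Competition binding format: recombinant His-BCL2 and a biotin-Bim peptide are incubated with compound for 1 h, followed by 4 h at room temperature with HTRF detection antibodies.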", "units": {"IC50": "nM"}, "values": [
      {"smiles": "COc1cc(CN2CCN(C3CC4(CCN(c5cc(Oc6cnc7[nH]ccc7c6)c(C(=O)NS(=O)(=O)c6ccc(NC[C@H]7CC[C@](C)(O)CC7)c([N+](=O)[O-])c6)cc5F)CC4)C3)[C@H](c3ccccc3C(C)C)C2)ccc1C1CC1", "note": "[compound 220, 2-((1H-pyrrolo[2,3-b]pyrid-5-yl)oxy)-4-(2-((R)-4-(4-cyclopropyl-3-methoxybenzyl)-2-(2-isopropylphenyl)piperazin-1-yl)-7-azaspiro[3.5]non-7-yl)-5-fluoro-N-((4-((((1r, 4r)-4-hydroxy-4-methylcyclohexyl)methyl)amino)-3-nitrophenyl)sulfonyl)benzamide]", "IC50": "< 10"},
      {"smiles": "COc1ccc(CN2CCN(C3CC4(CCN(c5cc(Oc6cnc7[nH]ccc7c6)c(C(=O)NS(=O)(=O)c6cc([N+](=O)[O-])c(NC[C@H]7CC[C@](C)(O)CC7)c7scnc67)cc5F)CC4)C3)[C@H](c3ccccc3C(C)C)C2)cc1", "note": "[compound 116, 2-((1H-pyrrolo[2,3-b]pyrid-5-yl)oxy)-5-fluoro-N-((7-((((1r, 4r)-4-hydroxy-4-methylcyclohexyl)methyl)amino)-6-nitrobenzo[d]thiazol-4-yl)sulfonyl)-4-(2-((R)-2-(2-isopropylphenyl)-4-(4-methoxybenzyl)piperazin-1-yl)-7-azaspiro[3.5]non-7-yl)benzamide]", "IC50": "< 10"},
      {"smiles": "COc1ccc(CN2CCN(C3CC4(CCN(c5cc(Oc6cnc7[nH]ccc7c6)c(C(=O)NS(=O)(=O)c6cc([N+](=O)[O-])c(NCC7(F)CCOCC7)c7occc67)cc5F)CC4)C3)[C@H](c3ccccc3C(C)C)C2)cn1", "note": "[compound 129, (R)-2-((1H-pyrrolo[2,3-b]pyrid-5-yl)oxy)-5-fluoro-N-((7-(((4-fluorotetrahydro-2H-pyran-4-yl)methyl)amino)-6-nitrobenzofuran-4-yl)sulfonyl)-4-(2-(2-(2-isopropylphenyl)-4-((6-methoxypyrid-3-yl)methyl)piperazin-1-yl)-7-azaspiro[3.5]non-7-yl)benzamide]", "IC50": "< 10"},
      {"smiles": "CC(C)c1ccccc1[C@@H]1CCCN1C1CC2(CCN(c3cc(Oc4cnc5[nH]ccc5c4)c(C(=O)NS(=O)(=O)c4cc([N+](=O)[O-])c(NCC5(F)CCN(C(=O)CN(C)C)CC5)c5[nH]cnc45)cc3F)CC2)C1", "note": "[compound 030, (S)-2-((1H-pyrrolo[2,3-b]pyrid-5-yl)oxy)-N-((7-(((1-(dimethylglycyl)-4-fluoropiperid-4-yl)methyl)amino)-6-nitro-1H-benzo[d]imidazol-4-yl)sulfonyl)-5-fluoro-4-(2-(2-(2-isopropylphenyl)pyrrolidin-1-yl)-7-azaspiro[3.5]non-7-yl)benzamide]", "IC50": "< 10"},
      {"smiles": "COc1ccc(CN2CCN(C3CC4(CCN(c5ccc(C(=O)NS(=O)(=O)c6cc([N+](=O)[O-])c(NCC7CCOCC7)c7[nH]cnc67)c(N6CCOc7nc8[nH]ccc8cc76)c5)CC4)C3)C(c3ccccc3C(C)C)C2)cc1", "note": "(centres unmarked) [compound 091, 2-(2,3-dihydropyrrolo[3′,2′:5,6]pyridino[2,3-b][1,4]oxazin-1 (6H)-yl)-4-(2-(2-(2-isopropylphenyl)-4-(4-methoxybenzyl)piperazin-1-yl)-7-azaspiro[3.5]non-7-yl)-N-((6-nitro-7-(((tetrahydro-2H-pyran-4-yl)methyl)amino)-1H-benzo[d]imidazol-4-yl)sulfonyl)benzamide]", "IC50": "< 10"},
      {"smiles": "COc1ccc(CN2CCN(C3CC4(CCN(c5cc(Oc6cnc7[nH]ccc7c6)c(C(=O)NS(=O)(=O)c6cc([N+](=O)[O-])c(NC[C@H]7CC[C@](C)(O)CC7)c7occc67)cn5)CC4)C3)[C@H](c3ccccc3C(C)C)C2)cc1", "note": "[compound 139, 4-((1H-pyrrolo[2,3-b]pyrid-5-yl)oxy)-N-((7-((((1r, 4r)-4-hydroxy-4-methylcyclohexyl)methyl)amino)-6-nitrobenzofuran-4-yl)sulfonyl)-6-(2-((R)-2-(2-isopropylphenyl)-4-(4-methoxybenzyl)piperazin-1-yl)-7-azaspiro[3.5]non-7-yl) nicotinamide]", "IC50": "< 10"},
      {"smiles": "CC(C)c1ccccc1[C@@H]1CCCN1C1CC2(CCN(c3cc(Oc4cnc5[nH]ccc5c4)c(C(=O)NS(=O)(=O)c4cc([N+](=O)[O-])c(NC[C@H]5CC[C@](C)(O)CC5)c5[nH]cnc45)cc3F)CC2)C1", "note": "[compound 014, 2-((1H-pyrrolo[2,3-b]pyrid-5-yl)oxy)-5-fluoro-N-((7-((((1r,4r)-4-hydroxy-4-methylcyclohexyl)methyl)amino)-6-nitro-1H-benzo[d]imidazol-4-yl)sulfonyl)-4-(2-((S)-2-(2-isopropylphenyl)pyrrolidin-1-yl)-7-azaspiro[3.5]non-7-yl)benzamide]", "IC50": "< 10"},
      {"smiles": "CC(C)c1ccccc1[C@@H]1CCCN1C1CC2(CCN(c3cc(Oc4cnc5[nH]ccc5c4)c(C(=O)NS(=O)(=O)c4cc([N+](=O)[O-])c(NCC5(F)CCN(CC(F)(F)F)CC5)c5[nH]cnc45)cn3)CC2)C1", "note": "[compound 031, (S)-4-((1H-pyrrolo[2,3-b]pyrid-5-yl)oxy)-N-((7-(((4-fluoro-1-(2,2,2-trifluoroethyl)piperid-4-yl)methyl)amino)-6-nitro-1H-benzo[d]imidazol-4-yl)sulfonyl)-6-(2-(2-(2-isopropylphenyl)pyrrolidin-1-yl)-7-azaspiro[3.5]non-7-yl) nicotinamide]", "IC50": "< 10"},
      {"smiles": "CC(C)c1ccccc1[C@@H]1CCCN1C1CC2(CCN(c3ccc(C(=O)NS(=O)(=O)c4cc([N+](=O)[O-])c(NCC5(F)CCN(C(C)C)CC5)c5[nH]ccc45)c(Oc4cnc5[nH]ccc5c4)c3)CC2)C1", "note": "[compound 010, (S)-2-((1H-pyrrolo[2,3-b]pyrid-5-yl)oxy)-N-((7-(((4-fluoro-1-isopropylpiperid-4-yl)methyl)amino)-6-nitro-1H-indol-4-yl)sulfonyl)-4-(2-(2-(2-isopropylphenyl)pyrrolidin-1-yl)-7-azaspiro[3.5]non-7-yl)benzamide]", "IC50": "< 10"},
      {"smiles": "COc1ccc(CN2C[C@@H](c3ccccc3C(C)C)N(C3CC4(CCN(c5cc(Oc6cnc7[nH]ccc7c6)c(C(=O)NS(=O)(=O)c6ccc(NCC7(F)CCOCC7)c([N+](=O)[O-])c6)cc5F)CC4)C3)C[C@@H]2C)cc1", "note": "[compound 154, 2-((1H-pyrrolo[2,3-b]pyrid-5-yl)oxy)-5-fluoro-N-((4-(((4-fluorotetrahydro-2H-pyran-4-yl)methyl)amino)-3-nitrophenyl)sulfonyl)-4-(2-((2R,5S)-2-(2-isopropylphenyl)-4-(4-methoxybenzyl)-5-methylpiperazin-1-yl)-7-azaspiro[3.5]non-7-yl)benzamide]", "IC50": "< 10"},
      {"smiles": "COc1ccc(CN2CCN(C3CC4(CCN(c5cc(Oc6cnc7[nH]ccc7c6)c(C(=O)NS(=O)(=O)c6ccc(NC[C@H]7CC[C@](C)(O)CC7)c([N+](=O)[O-])c6)cc5F)CC4)C3)[C@H](c3ccccc3C(C)C)C2)c2c1OCO2", "note": "[compound 223, 2-((1H-pyrrolo[2,3-b]pyrid-5-yl)oxy)-5-fluoro-N-((4-((((1r, 4r)-4-hydroxy-4-methylcyclohexyl)methyl)amino)-3-nitrophenyl)sulfonyl)-4-(2-((R)-2-(2-isopropylphenyl)-4-((7-methoxybenzo[d][1,3]dioxycyclopent-4-yl)methyl)piperazin-1-yl)-7-azaspiro[3.5]non-7-yl)benzamide]", "IC50": "< 10"}
    ]}
  ]
}
